Results as given in patent publication US8946201B2, “Methods for inhibiting TGF-β” (Saint Louis University, priority 2007, dated 2015).

Assays:
[1] = system: Smad2 phosphorylation stimulated by TGF-β1; test: TGF-β1-stimulated Smad2 phosphorylation, Western blot, NRK cells; assay type: cell-based, rat; details: 25 μg/ml, 37° C. 1 hr, then 50 pM TGF-β1 0.5 hr
Procedure: Cells were treated with increasing concentrations of cholesterol, as indicated (A, B, C), 50 μg protein/ml LDL (D), 5 μg protein/ml VLDL (D) or 50 μg/ml cholesterol (E) at 37° C. for 1 hr and then further incubated with 50 pM TGF-β1 for 30 min. Phosphorylated Smad2 (P-Smad2) and total Smad2 in the cell lysates were analyzed by 7.5% SDS-PAGE and followed by immunoblot analysis using anti-P-Smad2 and anti-Smad2 antibodies. A representative of a total of 3 analyses is shown (top). The quantitative analysis of the immunoblots is shown (bottom). […] Smad2 nuclear translocation was analyzed by indirect immunofluorescent staining using P-Smad2 antibody and rhodamine-labeled 2nd antibody (E). Rhodamine fluorescence represents P-Smad2 staining (a,b,c) whereas the nuclei were stained by DAPI staining (d,e,f).
Cells grown to near confluence on 12-well cluster dishes were treated with cholesterol or LDL in serum-free DMEM (vol.=0.5 ml/well) at 37° C. for 1 hr. […] Treated cells were lysed and cell lysates were analyzed by 7.5% SDS-PAGE and Western blot analysis using anti-Smad2, anti-P-Smad2, anti-caveolin-1, anti-TβR-I (alk5) or anti-TβR-II antibodies as described previously (30). […]
It has been reported that TGF-β responsiveness is determined by TGF-β partitioning between lipid raft/caveolae-mediated and clathrin-mediated endocytosis. […]

PAI-1 expression = test: TGF-β1-induced PAI-1 expression, Northern blot, NRK cells; assay type: cell-based, rat; details: 50 μg/ml, TGF-β1 2 to 100 pM
Procedure: (A, B, C, D, E, F) Cells were treated with 50 μg/ml cholesterol (A, B, C, D) and 50 μg/ml LDL (D) at 37° C. for 1 hr or with 1 μM fluvastatin or lovastatin (E) or several concentrations of fluvastatin (F) at 37° C. for 16 hr and then further incubated with increasing concentrations (as indicated) of TGF-β1 (A, B, C, E) or 50 pM TGF-β1 (D,F) for 2 hr. Northern blot analysis of PAI-1 and G3PDH was performed. A representative of a total of three analyses is shown (a). The relative intensities of the transcripts were quantified with a PhosphoImager. The ratio of the relative intensities of PAI-1 and G3PDH transcripts in cells treated without TGF-β1 and cholesterol, LDL or statins on the blot was taken as 1 fold or 100% of PAI-1 expression. The quantitative data from three independent analyses is shown (b). […] (G) Mv1Lu cells stably expressing a luciferase reporter gene driven by the PAI-1 promoter (MLECs-clone 32) were treated with increasing concentrations (as indicated) of cholesterol at 37 EC for 1 hr (a) or with 1 μM lovastatin at 37° C. for 16 hr (b) and then further incubated with 50 pM TGF-β for 7 hr. The luciferase activity in cells treated without cholesterol was taken as 100% (a). […] (H) Cells were incubated with 0.0625 and 0.125 pM TGF-β1 in the presence of increasing concentrations of cholesterol, as indicated. […] The experiments were carried out in triplicate.

`CC(C)CCC[C@@H](C)[C@H]1CC[C@H]2[C@@H]3CC=C4C[C@@H](O)CC[C@]4(C)[C@H]3CC[C@]12C` [cholesterol] was tested, and the “suppression of Smad2 phosphorylation stimulated by TGF-β1” value [1] was 40% and the “suppression of TGF-β1-stimulated PAI-1 expression” value (PAI-1 expression) was 60-65%.
